From PubChem BioAssay AID670 (University of Pittsburgh Molecular Library Screening Center, 2007)

Molecular target: M-phase inducer phosphatase 2 (Homo sapiens) (UniProt P30305)
Test: Cdc25B inhibition under reducing thiol conditions, late-stage follow-up, Cdc25B inhibitor project, biochemical, beta-mercaptoethanol present, catalytic domain, IC50 (AID 670)
Details: recombinant Cdc25B phosphatase activity, with beta-mercaptoethanol

M-phase inducer phosphatase 2 (Homo sapiens), sequence (P30305 whole entry, looked up, the tested form may be a part): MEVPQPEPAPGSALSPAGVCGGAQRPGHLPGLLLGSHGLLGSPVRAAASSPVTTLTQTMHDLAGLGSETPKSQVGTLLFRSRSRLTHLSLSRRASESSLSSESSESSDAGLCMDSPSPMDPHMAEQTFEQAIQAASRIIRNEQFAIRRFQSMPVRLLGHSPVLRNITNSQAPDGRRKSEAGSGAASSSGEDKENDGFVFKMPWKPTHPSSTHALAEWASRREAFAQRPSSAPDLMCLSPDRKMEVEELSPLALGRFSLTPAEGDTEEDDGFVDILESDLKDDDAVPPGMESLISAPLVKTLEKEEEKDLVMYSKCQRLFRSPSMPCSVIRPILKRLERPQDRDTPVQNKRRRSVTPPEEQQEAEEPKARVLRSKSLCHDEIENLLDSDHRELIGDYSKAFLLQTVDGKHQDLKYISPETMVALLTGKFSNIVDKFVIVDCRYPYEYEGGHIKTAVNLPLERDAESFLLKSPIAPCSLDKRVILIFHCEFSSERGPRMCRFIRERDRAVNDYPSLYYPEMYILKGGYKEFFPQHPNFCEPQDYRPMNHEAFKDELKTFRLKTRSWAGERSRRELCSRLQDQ

| SMILES | IC50 [µM] |
| --- | --- |
| COc1cccc2c1NC(C(=O)O)C1CC=CC21 (configuration not stated) | 8.11 |
| O=C(OC1CCCCC1)c1ccc2c(c1)C1C=CCC1C(C(=O)O)N2 (configuration not stated) | 3.8 |
